{
  "source": "paper PMC6440977",
  "about": "“Nucleoside analogue activators of cyclic AMP-independent protein kinase A of Trypanosoma” (Nature Communications, 2019)",
  "key": {"[1]": {"biological_target": "T. brucei PKAR(199–499) (Trypanosoma brucei, UniProt Q9GU80)", "sequence (Q9GU80 entry or part of it)": "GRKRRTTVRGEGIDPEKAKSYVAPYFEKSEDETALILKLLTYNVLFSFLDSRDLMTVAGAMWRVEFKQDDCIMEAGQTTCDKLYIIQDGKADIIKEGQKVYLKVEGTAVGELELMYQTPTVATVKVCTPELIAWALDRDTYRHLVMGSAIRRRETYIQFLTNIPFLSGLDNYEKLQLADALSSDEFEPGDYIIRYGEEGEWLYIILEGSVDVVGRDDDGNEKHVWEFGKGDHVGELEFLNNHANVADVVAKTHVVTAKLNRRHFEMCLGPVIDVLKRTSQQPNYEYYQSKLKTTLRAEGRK", "experiment": "biochemical", "format": "binding", "design": "Thermodynamics (ITC) -TΔS / Thermodynamics (ITC) ΔG / Thermodynamics (ITC) ΔH: unit: kcal/mol"}, "[2]": {"biological_target": "T1, human PKARIα (Homo sapiens, UniProt P10644)", "T1 construct": "The full length ORFs (amplified with primers introducing the respective); 6xHis followed by TEV site (N); made in house; host or cells: E. coli Rosetta D3", "T1 sequence (P10644 whole entry)": "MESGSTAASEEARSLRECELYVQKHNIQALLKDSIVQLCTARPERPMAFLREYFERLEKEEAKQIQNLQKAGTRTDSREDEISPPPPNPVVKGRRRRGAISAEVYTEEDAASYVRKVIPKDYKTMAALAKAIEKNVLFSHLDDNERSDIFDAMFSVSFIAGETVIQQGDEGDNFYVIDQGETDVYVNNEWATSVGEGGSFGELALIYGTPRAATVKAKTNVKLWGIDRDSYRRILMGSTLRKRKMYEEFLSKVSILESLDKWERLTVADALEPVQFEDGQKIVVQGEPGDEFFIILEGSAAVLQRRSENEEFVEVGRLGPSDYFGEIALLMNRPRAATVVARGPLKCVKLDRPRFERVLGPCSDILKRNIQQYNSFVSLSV", "experiment": "Binding by isothermal titration calorimetry (ITC)"}, "[3]": {"system": "T. brucei ∆pkar/∆pkar (pkar KO) cells", "experiment": "microbe, parasite or virus in culture", "format": "cell-based, Trypanosoma brucei", "conditions": "Trypanosoma brucei"}, "[4]": {"system": "RXXS*/T* site phosphorylation", "experiment": "Western blot of global RXXS*/T* site phosphorylation (phospho-PKA substrate antibody)", "format": "cell-based, Trypanosoma brucei", "conditions": "wild type, 2 µM, 10 min"}, "[5]": {"system": "T. brucei phosphoproteome", "experiment": "Quantitative phosphoproteomics", "format": "cell-based, Trypanosoma brucei", "procedure": "For each sample, 6 × 10^8 T. brucei cells treated or not with 8 µM 7-cyano-7-deazainosine for 15 min were lysed in 300 µl 4% (w/v) sodium deoxycholate, 0.1 M Tris, pH 8.5 for 5 min at 95 °C (according to the protocol of Humphrey et al.[78]). Samples were sonicated using a Bioruptor (Diagenode) (high power, two cycles of 10 min each, 30 s on/off). Protein concentration was determined by BCA protein assay and samples were adjusted to equal concentrations. Sample preparation and mass spectrometry were exactly carried out as described by Humphrey et al.[78]. MaxQuant 1.5.2.8[79] was used to identify proteins and quantify by LFQ with the following parameters: Database, TriTrypDB-39_TbruceiTREU927_AnnotatedProteins; MS tol, 10 ppm; MS/MS tol, 0.5 Da; Peptide FDR, 0.1; Protein FDR, 0.01 Min. peptide Length, 5; Variable modifications, Oxidation (M), Phosphorylation (STY); Fixed modifications, Carbamidomethyl (C); Peptides for protein quantitation, razor and unique; Min. peptides, 1; Min. ratio count, 2. For proteomic analysis, identified proteins were considered as statistically significant with FDR ≤ 0.05 and s0 = 1 (two-sided Student’s T-test adjusted for multiple comparisons by Benjamini–Hochberg correction, Perseus[80]). […] The mass spectrometry phosphoproteomics data have been deposited to the ProteomeExchange Consortium via the PRIDE partner repository (https://www.ebi.ac.uk/pride/archive) with the dataset identifier PXD012245. GO enrichment analysis was performed in TriTrypDB with default settings and visualized in Revigo (http://revigo.irb.hr). The motif discovery tool MoMo (using the motif-x algorithm) implemented in the MEME suite (http://meme-suite.org/) was used for unbiased motif discovery in the phosphoproteome dataset with the T. brucei TriTrypDB-40_TbruceiTREU927 protein database as background. Enriched sequence logos were visualized using CLC Main Workbench 7 (https://www.qiagenbioinformatics.com/)."}, "[6]": {"system": "metacaspase 4 (MCA4)", "format": "cell-based, Trypanosoma brucei", "conditions": "for MCA4 counts / MCA4 normalized / MCA4 fold change: 4 µM; for MCA4 normalized: normalized to PFR-A/C; for MCA4 fold change: untreated WT set to 1"}, "[7]": {"system": "PKAC1/2", "format": "cell-based, Trypanosoma brucei", "conditions": "for PKAC1/2 Western quantification: normalized to PFR, WT 0h set to 1, individual replicates; for PKAC1/2 counts / PKAC1/2 normalized / PKAC1/2 fold change: 4 µM; for PKAC1/2 normalized: normalized to PFR-A/C; for PKAC1/2 fold change: untreated WT set to 1"}, "[8]": {"system": "T. brucei BSF cells (WT)", "experiment": "Alamar blue cell viability assay, wild type;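 note: trypanosomes seeded at 5×10^3 per ml and grown 72 h with compound, then resazurin 0.5 mM added for 4 h as the viability read-out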"}, "[9]": {"conditions": "treated (Act) vs control (Crtl), significant, FDR ≤ 0.05, s0=2, 4 replicates"}},
  "note": "Where “and” joins values, the source holds several entries; their conditions need not be identical. Identical values can stand only once. Like-named read-outs stand apart in the source and are kept apart here.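 Throughout, for PKAC1/2 Western quantification: trypanosoma brucei cells, PKAC1/2 signal from western blots read on an infrared fluorescence scanning system.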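 Throughout, for PKAC1/2 counts: trypanosoma brucei cells, PKAC1/2 signal from western blots read on an infrared fluorescence scanning system.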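 Throughout, for PKAC1/2 fold change: trypanosoma brucei cells, PKAC1/2 signal from western blots read on an infrared fluorescence scanning system.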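 Throughout, for PKAC1/2 normalized: trypanosoma brucei cells, PKAC1/2 signal from western blots read on an infrared fluorescence scanning system.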",
  "data": [
    {"smiles": "N#Cc1cn([C@@H]2O[C@H](CO)[C@@H](O)[C@H]2O)c2ncnc(O)c12", "note": "[7-CN-7-C-Ino, 7-Cyano-7-deazainosine]", "values": [
      {"measurement": "Kd", "setting": "[1]; 298 K, mean ± SD, n=3, read-out: KD in vitro binding to PKAR (ITC)", "value": "0.008 ± 0.002", "unit": "µM"},
      {"measurement": "−TΔS (entropic component of binding)", "setting": "[1]; ITC, mean", "value": -2.3, "unit": "kcal/mol"},
      {"measurement": "Thermodynamics (ITC) -TΔS", "setting": "[1]; independent replicates", "value": "-2.82 and -2.13 and -1.91"},
      {"measurement": "Thermodynamics (ITC) ΔG", "setting": "[1]; independent replicates", "value": "-11.3 and -10.9 and -11"},
      {"measurement": "Thermodynamics (ITC) ΔH", "setting": "[1]; independent replicates", "value": "-8.48 and -8.8 and -9.1"},
      {"measurement": "Molar ratio of binding (ITC)", "setting": "[1]; ligand to protein, mean ± SD, n=3", "value": "2 ± 0.2"},
      {"measurement": "higher binding affinity to PKAR compared to Toyo", "setting": "[1]; ratio of KD", "value": 7, "unit": "fold"},
      {"measurement": "binding to purified human PKARIα, in words", "setting": "[2]", "value": "did not bind"},
      {"measurement": "IC50", "setting": "[3]; 72 h, read-out: IC50 growth pkar KO", "value": "≥ 125", "unit": "µM"},
      {"measurement": "EC50", "setting": "[3]; read-out: EC50, Alamar blue cell viability assay, KO, individual replicate results, pkar KO cells, fit ambiguous, bound given in µM", "value": "> 125", "unit": "µM"},
      {"measurement": "increase in global RXXS*/T* site phosphorylation", "setting": "[4]", "value": "3–4 fold"},
      {"measurement": "downregulated phosphosites (number)", "setting": "[5]; 8 µM, 15 min", "value": 84},
      {"measurement": "downregulated phosphosites containing PKA motifs", "setting": "[5]; 8 µM, 15 min", "value": 19, "unit": "%"},
      {"measurement": "upregulated phosphosites containing PKA motifs", "setting": "[5]; 8 µM, 15 min", "value": 77, "unit": "%"},
      {"measurement": "significantly upregulated phosphosites (number)", "setting": "[5]; 8 µM, 15 min, FDR ≤ 0.05, s0 = 2", "value": 642},
      {"measurement": "Difference, phosphopeptide Tb11.v5.1036.1 gamma-tubulin complex subunit, putative, S120", "setting": "[5]; [9]", "value": 3.988},
      {"measurement": "Difference, phosphopeptide Tb927.10.630 hypothetical protein, conserved, S331", "setting": "[5]; [9]", "value": 2.868},
      {"measurement": "Difference, phosphopeptide Tb927.10.8410 hypothetical protein, conserved, S234", "setting": "[5]; [9]", "value": 2.478},
      {"measurement": "Western quantification, KO + Ino", "setting": "[6]; KO cells + Ino, normalized to PFR, WT set to 1, individual replicates, protein not given", "value": "0.3769 and 0.643 and 0.8892"},
      {"measurement": "Western quantification, WT + Ino", "setting": "[6]; WT cells + Ino, normalized to PFR, WT set to 1, individual replicates, protein not given", "value": "3.707 and 4.121 and 2.558"},
      {"measurement": "MCA4 counts", "setting": "[6]; WT, 12 h", "value": 9.21},
      {"measurement": "MCA4 normalized", "setting": "[6]; WT, 12 h", "value": 5.616},
      {"measurement": "MCA4 fold change", "setting": "[6]; WT, 12 h", "value": 0.3804},
      {"measurement": "MCA4 counts", "setting": "[6]; WT, 18 h", "value": 7.41},
      {"measurement": "MCA4 normalized", "setting": "[6]; WT, 18 h", "value": 5.37},
      {"measurement": "MCA4 fold change", "setting": "[6]; WT, 18 h", "value": 0.3637},
      {"measurement": "MCA4 counts", "setting": "[6]; WT, 24 h", "value": 7.18},
      {"measurement": "MCA4 normalized", "setting": "[6]; WT, 24 h", "value": 4.603},
      {"measurement": "MCA4 fold change", "setting": "[6]; WT, 24 h", "value": 0.3117},
      {"measurement": "MCA4 counts", "setting": "[6]; pkar KO, 12 h", "value": 8.83},
      {"measurement": "MCA4 normalized", "setting": "[6]; pkar KO, 12 h", "value": 0.3995},
      {"measurement": "MCA4 fold change", "setting": "[6]; pkar KO, 12 h", "value": 0.8235},
      {"measurement": "MCA4 counts", "setting": "[6]; pkar KO, 18 h", "value": 9.5},
      {"measurement": "MCA4 normalized", "setting": "[6]; pkar KO, 18 h", "value": 0.5278},
      {"measurement": "MCA4 fold change", "setting": "[6]; pkar KO, 18 h", "value": 1.088},
      {"measurement": "MCA4 counts", "setting": "[6]; pkar KO, 24 h", "value": 10.63},
      {"measurement": "MCA4 normalized", "setting": "[6]; pkar KO, 24 h", "value": 0.3562},
      {"measurement": "MCA4 fold change", "setting": "[6]; pkar KO, 24 h", "value": 0.7342},
      {"measurement": "MCA4 abundance, in words", "setting": "[6]; wild type, 12 h post induction", "value": "decreased"},
      {"measurement": "PKAC1/2 Western quantification", "setting": "[7]; R KO cells, 6 h treatment", "value": "0.4425 and 0.1597 and 0.1981"},
      {"measurement": "PKAC1/2 Western quantification", "setting": "[7]; R KO cells, 12 h treatment", "value": "0.2802 and 0.2063 and 0.2365"},
      {"measurement": "PKAC1/2 Western quantification", "setting": "[7]; WT cells, 6 h treatment", "value": "0.4685 and 0.4579 and 0.5439"},
      {"measurement": "PKAC1/2 Western quantification", "setting": "[7]; WT cells, 12 h treatment", "value": "0.3997 and 0.2606 and 0.4376"},
      {"measurement": "PKAC1/2 counts", "setting": "[7]; WT, 12 h", "value": 99.53},
      {"measurement": "PKAC1/2 normalized", "setting": "[7]; WT, 12 h", "value": 60.689},
      {"measurement": "PKAC1/2 fold change", "setting": "[7]; WT, 12 h", "value": 0.4385},
      {"measurement": "PKAC1/2 counts", "setting": "[7]; WT, 18 h", "value": 76},
      {"measurement": "PKAC1/2 normalized", "setting": "[7]; WT, 18 h", "value": 55.0725},
      {"measurement": "PKAC1/2 fold change", "setting": "[7]; WT, 18 h", "value": 0.3979},
      {"measurement": "PKAC1/2 counts", "setting": "[7]; WT, 24 h", "value": 86.74},
      {"measurement": "PKAC1/2 normalized", "setting": "[7]; WT, 24 h", "value": 55.6026},
      {"measurement": "PKAC1/2 fold change", "setting": "[7]; WT, 24 h", "value": 0.4018},
      {"measurement": "PKAC1/2 counts", "setting": "[7]; pkar KO, 12 h", "value": 70.66},
      {"measurement": "PKAC1/2 normalized", "setting": "[7]; pkar KO, 12 h", "value": 3.197},
      {"measurement": "PKAC1/2 fold change", "setting": "[7]; pkar KO, 12 h", "value": 0.1969},
      {"measurement": "PKAC1/2 counts", "setting": "[7]; pkar KO, 18 h", "value": 69.65},
      {"measurement": "PKAC1/2 normalized", "setting": "[7]; pkar KO, 18 h", "value": 3.869},
      {"measurement": "PKAC1/2 fold change", "setting": "[7]; pkar KO, 18 h", "value": 0.2383},
      {"measurement": "PKAC1/2 counts", "setting": "[7]; pkar KO, 24 h", "value": 95.11},
      {"measurement": "PKAC1/2 normalized", "setting": "[7]; pkar KO, 24 h", "value": 3.187},
      {"measurement": "PKAC1/2 fold change", "setting": "[7]; pkar KO, 24 h", "value": 0.1963},
      {"measurement": "increase of EC50 for cell viability compared to Toyo", "setting": "[8]", "value": "> 170", "unit": "fold"},
      {"measurement": "IC50", "setting": "[8]; Trypanosoma brucei, 72 h, read-out: IC50 growth WT", "value": "≥ 125", "unit": "µM"},
      {"measurement": "EC50", "setting": "[8]; Trypanosoma brucei, read-out: EC50, Alamar blue cell viability assay, WT, individual replicate results, wild type cells, fit ambiguous, bound given in µM", "value": "> 125", "unit": "µM"},
      {"measurement": "effect on growth or viability, in words", "setting": "[8]; continuous treatment", "value": "does not produce these PKA-independent effects"}
    ]}
  ]
}
